Measurements: patent US20090111736A1, “Orally-Absorbed Solid Dose Formulation for Vancomycin” (SRI International, priority 2007, published 2009)
Structures can show the parent of a compound that is named as a salt.

Tests used:
[1] = In vitro mucosal-to-serosal vancomycin transport, modified Ussing chambers, jejunum; type: in vitro ADME, rat; details: male, rat
Text: (§1) We investigated regional variation in permeation of vancomycin (VCM) across various segments of rat intestine and colon in vitro by mounting isolated segments of rat intestine and colon between horizontal modified Ussing chambers. The effects of drug concentration and of addition of a p-glycoprotein inhibitor or permeation enhancer(s) as formulation additives on VCM permeation were also studied in vitro using segments of rat jejunum.
(§2) Methods: A modified Ussing system (Easy mount Ussing system, Physiological Instruments Inc., CA, Item # EM-CSYS-8) with eight sets of chambers was used for all in vitro studies; each set consisted of two parallel diffusion chambers, a heating block for temperature control, needle valves for gas flow adjustment and gas mixing, and Ag/AgCl voltage and current electrodes for measuring transepithelial voltage and for passing current.
(§3) Harvesting of required small intestinal or colon segments of a male rat was performed using experimental procedures described in the literature (Gotoh et al., J Biomol Screen (2005) 10:517-23). The harvested segments of small intestine or colon were mounted on sliders placed between the two horizontal chambers of a modified Ussing system.
(§4) VCM was dissolved in HEPES buffer pH 7.4 (Table 1) previously saturated with 100% O2 or HEPES buffer containing additives selected from permeation enhancer(s) and/or an efflux transport inhibitor (Table 2) to obtain predetermined concentrations of drug and additive(s).
Drug transport across epithelial membranes of harvested rat small intestine and colon segments, in mucosal-to-serosal (M-to-S) direction, was studied using modified Ussing Chambers. Aliquots of HEPES buffer (5 ml) were initially added to both the mucosal and serosal chambers and allowed to equilibrate for 20 minutes. The HEPES buffer in the mucosal chamber was replaced by a study sample containing VCM alone or VCM and selected additive(s) in HEPES buffer, e.g., 5 mg/mL of VCM dissolved in HEPES buffer containing 10% w/w Labrasol®. Aliquots of 0.5 mL buffer solutions were removed periodically from serosal chambers, and replaced with equal volumes of fresh warm (37±2° C.) HEPES buffer previously saturated with 100% O2. […]
(§5) Changes in transepithelial short-circuit current (in micro-Amps) and membrane resistance (in Ohms) as a function of time were monitored continuously during in vitro studies to serve as indicators of tissue viability and drug permeability, respectively. The buffer samples from the receptor chambers were analyzed for VCM content on a high pressure liquid chromatograph (HPLC; Hewlett Packard Model 1100 series).
(§6) The analysis of VCM samples was performed using a reverse phase gradient HPLC method, with a Hypersil BDS C18 column, 5 μm, 150×4.6 mm., mobile phase consisting of 5 mM potassium phosphate monobasic in water (pH 3) as solvent A and acetonitrile as solvent B at a flow rate of 1 ml/min (Farin et al., J Pharm Biomed Anal (1998) 18:367-72). The eluant was monitored by a UV/diode array detector at 280 nm.
(§7) To compare data obtained from different in vitro experiments, the apparent permeability coefficients were calculated using the equation: […]
(§8) Where dQ/dt is the linear appearance rate of mass in receiver compartment, C0 is the initial solute concentration in donor compartment, and A is the surface area (Luo et al., Drug Metab Dispos (2002) 30:763-70).

rat ileum = experiment: In vitro mucosal-to-serosal vancomycin transport, modified Ussing chambers, ileum; type: in vitro ADME; details: 5 mg/ml vancomycin in HEPES buffer
Text: as §1, §2, §3, §4
(§9) Drug transport across epithelial membranes of harvested rat small intestine and colon segments, in mucosal-to-serosal (M-to-S) direction, was studied using modified Ussing Chambers. Aliquots of HEPES buffer (5 ml) were initially added to both the mucosal and serosal chambers and allowed to equilibrate for 20 minutes. The HEPES buffer in the mucosal chamber was replaced by a study sample containing VCM alone or VCM and selected additive(s) in HEPES buffer, e.g., 5 mg/mL of VCM dissolved in HEPES buffer containing 10% w/w Labrasol®. Aliquots of 0.5 mL buffer solutions were removed periodically from serosal chambers, and replaced with equal volumes of fresh warm (37±2° C.) HEPES buffer previously saturated with 100% O2. To study the effect of additives in the serosal chamber (i.e., quinidine and sodium decanoate), HEPES buffer containing the selected additive was placed in the serosal chamber and replaced with the same buffer composition during sampling.
as §5, §6, §7, §8

[2] = as above; type: in vitro ADME, rat; details: male, rat, pH 7.4, 5 mg/ml, HEPES buffer alone
Text: as §1, §2, §3, §4, §9, §5, §6, §7, §8

rat colon = experiment: In vitro mucosal-to-serosal vancomycin transport, modified Ussing chambers, colon; type: in vitro ADME; details: 5 mg/ml vancomycin in HEPES buffer
Text: as §1, §2, §3, §4, §9, §5, §6, §7, §8

[3] = as above; type: in vitro ADME, rat; details: male, rat, pH 7.4, 5 mg/ml, HEPES buffer alone
Text: as §1, §2, §3, §4, §9, §5, §6, §7, §8

[4] = cited from earlier work
[5] = In vitro mucosal-to-serosal vancomycin transport, modified Ussing chambers, duodenum; type: in vitro ADME, rat; details: male, rat, pH 7.4, 5 mg/ml, HEPES buffer alone
Text: as §1, §2, §3, §4, §9, §5, §6, §7, §8

rat duodenum = experiment: as above; type: in vitro ADME; details: 5 mg/ml vancomycin in HEPES buffer
Text: as §1, §2, §3, §4, §9, §5, §6, §7, §8

Q: With `CN[C@H](CC(C)C)C(=O)N[C@H]1C(=O)N[C@@H](CC(N)=O)C(=O)N[C@H]2C(=O)N[C@H]3C(=O)N[C@H](C(=O)N[C@H](C(=O)O)c4cc(O)cc(O)c4-c4cc3ccc4O)[C@H](O)c3ccc(c(Cl)c3)Oc3cc2cc(c3O[C@@H]2O[C@H](CO)[C@@H](O)[C@H](O)[C@H]2O[C@H]2C[C@](C)(N)[C@H](O)[C@H](C)O2)Oc2ccc(cc2Cl)[C@H]1O` [Vancomycin hydrochloride] as the molecule, how does the Papp at 2.5 hr, 5 mg/ml ([1]; pH 7.4, 5 mg/ml, HEPES buffer alone, jejunum) read?
A: The Papp at 2.5 hr, 5 mg/ml was 0.62 ± 0.07 ×10⁻⁶ cm/s.

Q: What about the Papp at 5 mg/ml ([1]; pH 7.4, 5 mg/ml, jejunum, 1.0 mM sodium decanoate in mucosal chamber) of the same molecule?
A: The Papp at 5 mg/ml was 1.74 ± 0.1 ×10⁻⁶ cm/s.

Q: What about the Papp at 5 mg/ml ([1]; pH 7.4, 5 mg/ml, jejunum, 1.0 mM sodium decanoate in serosal chamber) of the same molecule?
A: Its Papp at 5 mg/ml is 0.6 ± 0.02 ×10⁻⁶ cm/s.

Q: What about the Papp at 5 mg/ml ([1]; pH 7.4, 5 mg/ml, jejunum, HEPES buffer containing 5% w/w Gelucire ® 44/14) of the same molecule?
A: The Papp at 5 mg/ml was 0.78 ± 0.03 ×10⁻⁶ cm/s.

Q: And the Papp at 5 mg/ml ([1]; pH 7.4, 5 mg/ml, jejunum, HEPES buffer containing 5% w/w Gelucire ® 44/14 + 5% w/w Labrasol ®)?
A: Its Papp at 5 mg/ml is 0.71 ± 0.03 ×10⁻⁶ cm/s.

Q: What about the Papp at 5 mg/ml ([1]; pH 7.4, 5 mg/ml, jejunum, HEPES buffer containing 5% w/w Polysorbate-80) of the same molecule?
A: The Papp at 5 mg/ml was 0.88 ± 0.09 ×10⁻⁶ cm/s.

Q: And the Papp at 5 mg/ml ([1]; pH 7.4, 5 mg/ml, jejunum, HEPES buffer containing 5% w/w Polysorbate-80 + 5% w/w Labrasol ®)?
A: The Papp at 5 mg/ml was 0.53 ± 0.06 ×10⁻⁶ cm/s.

Q: And the Papp at 5 mg/ml ([1]; pH 7.4, 5 mg/ml, jejunum, HEPES buffer containing 5% w/w Vitamin E TPGS + 5% w/w Labrasol ®)?
A: The Papp at 5 mg/ml was 0.56 ± 0.06 ×10⁻⁶ cm/s.

Q: What about the Papp at 5 mg/ml ([1]; pH 7.4, 5 mg/ml, jejunum, HEPES buffer containing 10% w/w Labrasol ®) of the same molecule?
A: The Papp at 5 mg/ml was 0.36 ± 0.06 ×10⁻⁶ cm/s.

Q: And the Papp at 5 mg/ml ([1]; pH 7.4, 5 mg/ml, jejunum, HEPES buffer containing 20% w/w Bile salts)?
A: Its Papp at 5 mg/ml is 3.67 ± 0.58 ×10⁻⁶ cm/s.

Q: And the Papp at 2.5 hr, 10 mg/mL ([1]; pH 7.4, 10 mg/mL, HEPES buffer alone, jejunum)?
A: Its Papp at 2.5 hr, 10 mg/mL is 0.57 ± 0.13 ×10⁻⁶ cm/s.

Q: What about the Papp at 2.5 hr, 25 mg/mL ([1]; pH 7.4, 25 mg/mL, HEPES buffer alone, jejunum) of the same molecule?
A: The Papp at 2.5 hr, 25 mg/mL was 0.54 ± 0.69 ×10⁻⁶ cm/s.

Q: What about the Papp at 2.5 hr, 50 mg/mL ([1]; pH 7.4, 50 mg/mL, HEPES buffer alone, jejunum) of the same molecule?
A: Its Papp at 2.5 hr, 50 mg/mL is 0.39 ± 0.47 ×10⁻⁶ cm/s.

Q: What about the Papp at 2.5 hr, 5 mg/mL ([1]; pH 7.4, jejunum, in the presence of 10% w/w Labrasol®) of the same molecule?
A: The Papp at 2.5 hr, 5 mg/mL was 0.36 ×10⁻⁶ cm/s.

Q: And the Papp at 2.5 hr, 5 mg/ml ([1]; pH 7.4, with quinidine 0.15 mM in the mucosal chamber, 5 mg/ml, jejunum, 0.15 mM Quinidine in mucosal chamber)?
A: Its Papp at 2.5 hr, 5 mg/ml is 0.79 ± 0.08 ×10⁻⁶ cm/s.

Q: What about the Papp at 2.5 hr, 5 mg/ml ([1]; pH 7.4, with quinidine 0.15 mM in the serosal chamber, 5 mg/ml, jejunum, 0.15 mM Quinidine in serosal chamber) of the same molecule?
A: The Papp at 2.5 hr, 5 mg/ml was 2.06 ± 0.16 ×10⁻⁶ cm/s.

Q: And the “Ave. Cumulative Amt VCM Released” value (rat ileum; 0.5 hr)?
A: Its value is 0.00 ± 0.00 µg.

Q: What about the “Ave. Cumulative Amt VCM Released” value (rat ileum; 1.0 hr) of the same molecule?
A: Its value is 0.00 ± 0.00 µg.

Q: And the “Ave. Cumulative Amt VCM Released” value (rat ileum; 1.5 hr)?
A: The value was 2.55 ± 0.67 µg.

Q: What about the “Ave. Cumulative Amt VCM Released” value (rat ileum; 2.0 hr) of the same molecule?
A: The value was 4.31 ± 1.17 µg.

Q: And the “Ave. Cumulative Amt VCM Released” value (rat ileum; 2.5 hr)?
A: Its value is 6.33 ± 1.66 µg.

Q: What about the Papp at 2.5 hr, 5 mg/ml [2] of the same molecule?
A: Its Papp at 2.5 hr, 5 mg/ml is 0.38 ± 0.05 ×10⁻⁶ cm/s.

Q: What about the “Ave. Cumulative Amt VCM Released” value (rat colon; 0.5 hr) of the same molecule?
A: Its value is 0.00 ± 0.00 µg.

Q: What about the “Ave. Cumulative Amt VCM Released” value (rat colon; 1.0 hr) of the same molecule?
A: The value was 0.00 ± 0.00 µg.

Q: And the “Ave. Cumulative Amt VCM Released” value (rat colon; 1.5 hr)?
A: Its value is 1.93 ± 0.38 µg.

Q: And the “Ave. Cumulative Amt VCM Released” value (rat colon; 2.0 hr)?
A: The value was 4.20 ± 0.99 µg.

Q: And the “Ave. Cumulative Amt VCM Released” value (rat colon; 2.5 hr)?
A: The value was 7.15 ± 1.82 µg.

Q: And the Papp at 2.5 hr, 5 mg/ml [3]?
A: Its Papp at 2.5 hr, 5 mg/ml is 0.41 ± 0.07 ×10⁻⁶ cm/s.

Q: What about the solubility in water [4] of the same molecule?
A: The solubility in water was “soluble in water”.

Q: What about the Papp at 2.5 hr, 5 mg/ml [5] of the same molecule?
A: Its Papp at 2.5 hr, 5 mg/ml is 0.2 ± 0.05 ×10⁻⁶ cm/s.

Q: What about the “Ave. Cumulative Amt VCM Released” value (rat duodenum; 0.5 hr) of the same molecule?
A: The value was 0.00 ± 0.00 µg.

Q: What about the “Ave. Cumulative Amt VCM Released” value (rat duodenum; 1.0 hr) of the same molecule?
A: Its value is 0.00 ± 0.00 µg.

Q: And the “Ave. Cumulative Amt VCM Released” value (rat duodenum; 1.5 hr)?
A: The value was 0.40 ± 0.80 µg.

Q: And the “Ave. Cumulative Amt VCM Released” value (rat duodenum; 2.0 hr)?
A: The value was 2.08 ± 0.87 µg.

Q: And the “Ave. Cumulative Amt VCM Released” value (rat duodenum; 2.5 hr)?
A: Its value is 3.51 ± 1.34 µg.
